Experimental data as given in ChEMBL document CHEMBL5678818, “Discovery of potent SOS1 inhibitors that block RAS activation via disruption of the RAS-SOS1 interaction” (Proc Natl Acad Sci U S A, 2019).

Columns and labels:
[1] = target: Son of sevenless homolog 2 (Homo sapiens, UniProt Q07890); experiment: Inhibition of N-terminal His10-tagged wild-type recombinant human SOS2 catalytic domain (564 to 1043 residues) expressed in Escherichia coli assessed as reduction in KRAS G12C mutant activation preincubated for 10 mins with KRAS followed by SOS2 addition measured after 30 mins in presence of EDA-GTP-DY-647P1 by HTRF analysis
[2] = target: T1, Guanine nucleotide exchange factor DBS (Homo sapiens, UniProt O15068); experiment: Inhibition of human DBS assessed as reduction in CDC42 activation preincubated for 1 min with CDC42 followed by DBS addition measured after 20 mins in presence of EDA-GTP-DY-647P1 by HTRF analysis
T1 sequence (O15068 whole entry): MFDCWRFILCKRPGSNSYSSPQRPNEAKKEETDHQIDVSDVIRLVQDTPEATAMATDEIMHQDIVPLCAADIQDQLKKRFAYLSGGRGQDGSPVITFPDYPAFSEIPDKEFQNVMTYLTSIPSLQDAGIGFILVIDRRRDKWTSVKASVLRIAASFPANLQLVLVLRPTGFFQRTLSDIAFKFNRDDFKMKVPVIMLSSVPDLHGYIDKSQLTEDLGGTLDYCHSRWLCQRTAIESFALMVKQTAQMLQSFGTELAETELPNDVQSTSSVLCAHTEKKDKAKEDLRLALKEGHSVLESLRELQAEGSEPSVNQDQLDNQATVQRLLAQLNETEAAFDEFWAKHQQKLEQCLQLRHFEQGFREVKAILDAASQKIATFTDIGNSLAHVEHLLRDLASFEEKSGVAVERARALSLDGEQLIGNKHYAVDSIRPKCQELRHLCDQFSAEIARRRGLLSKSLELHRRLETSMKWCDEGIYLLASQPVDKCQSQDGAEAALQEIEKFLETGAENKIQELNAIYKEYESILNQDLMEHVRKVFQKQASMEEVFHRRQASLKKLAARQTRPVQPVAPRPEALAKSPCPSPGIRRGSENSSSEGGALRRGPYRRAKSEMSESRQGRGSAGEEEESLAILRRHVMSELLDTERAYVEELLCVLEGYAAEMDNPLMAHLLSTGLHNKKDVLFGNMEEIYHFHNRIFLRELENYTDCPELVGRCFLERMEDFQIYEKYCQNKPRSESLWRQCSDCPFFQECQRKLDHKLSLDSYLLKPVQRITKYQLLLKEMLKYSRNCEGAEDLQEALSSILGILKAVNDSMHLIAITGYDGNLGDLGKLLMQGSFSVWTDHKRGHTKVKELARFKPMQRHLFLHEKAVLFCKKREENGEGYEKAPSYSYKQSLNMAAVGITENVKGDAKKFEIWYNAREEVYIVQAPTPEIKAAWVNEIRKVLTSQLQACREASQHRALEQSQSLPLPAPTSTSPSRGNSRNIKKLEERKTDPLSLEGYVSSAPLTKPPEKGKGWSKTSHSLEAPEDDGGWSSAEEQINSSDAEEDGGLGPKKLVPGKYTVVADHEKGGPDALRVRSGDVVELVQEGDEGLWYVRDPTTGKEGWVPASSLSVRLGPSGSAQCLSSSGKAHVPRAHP

[3] = target: Epidermal growth factor receptor (Homo sapiens, UniProt P00533); experiment: Inhibition of human EGFR using biotin-aminohexyl-AEEEEYFELVAKKK as substrate preincubated for 15 mins followed by substrate/ATP addition measured after 20 mins by FRET assay
[4] = system: Receptor-type tyrosine-protein kinase FLT3 (Homo sapiens), P36888 [N841I]; experiment: Inhibition of FLT3 N841I mutant (unknown origin) assessed as residual activity at 1000 nM by KINOMEscan analysis relative to control
[5] = target: T2, Rhodopsin kinase GRK1 (Homo sapiens) (UniProt Q15835); experiment: Inhibition of GRK1 (unknown origin) assessed as residual activity at 1000 nM by KINOMEscan analysis relative to control
T2 sequence (whole entry): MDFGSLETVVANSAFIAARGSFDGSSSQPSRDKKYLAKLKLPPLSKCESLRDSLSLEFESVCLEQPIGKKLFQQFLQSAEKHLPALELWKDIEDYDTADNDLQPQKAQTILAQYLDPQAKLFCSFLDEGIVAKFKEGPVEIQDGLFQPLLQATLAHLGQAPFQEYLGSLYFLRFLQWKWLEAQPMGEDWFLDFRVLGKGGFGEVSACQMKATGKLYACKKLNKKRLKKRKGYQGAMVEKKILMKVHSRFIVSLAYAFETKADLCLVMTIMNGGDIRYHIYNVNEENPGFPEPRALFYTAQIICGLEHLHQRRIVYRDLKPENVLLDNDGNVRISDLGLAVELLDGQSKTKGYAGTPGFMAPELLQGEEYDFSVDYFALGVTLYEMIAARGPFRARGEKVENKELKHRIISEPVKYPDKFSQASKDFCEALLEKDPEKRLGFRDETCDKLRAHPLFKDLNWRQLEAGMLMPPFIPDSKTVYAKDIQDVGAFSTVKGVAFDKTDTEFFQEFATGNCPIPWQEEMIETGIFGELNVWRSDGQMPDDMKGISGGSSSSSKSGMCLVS

[6] = system: Mast/stem cell growth factor receptor Kit (Homo sapiens), P10721 [V559D,T670I]; experiment: Inhibition of KIT V559D/T670I mutant (unknown origin) assessed as residual activity at 1000 nM by KINOMEscan analysis relative to control
[7] = target: T3, 3-phosphoinositide-dependent protein kinase 1 (Homo sapiens) (UniProt O15530); experiment: Inhibition of PDPK1 (unknown origin) assessed as residual activity at 1000 nM by KINOMEscan analysis relative to control
T3 sequence (whole entry): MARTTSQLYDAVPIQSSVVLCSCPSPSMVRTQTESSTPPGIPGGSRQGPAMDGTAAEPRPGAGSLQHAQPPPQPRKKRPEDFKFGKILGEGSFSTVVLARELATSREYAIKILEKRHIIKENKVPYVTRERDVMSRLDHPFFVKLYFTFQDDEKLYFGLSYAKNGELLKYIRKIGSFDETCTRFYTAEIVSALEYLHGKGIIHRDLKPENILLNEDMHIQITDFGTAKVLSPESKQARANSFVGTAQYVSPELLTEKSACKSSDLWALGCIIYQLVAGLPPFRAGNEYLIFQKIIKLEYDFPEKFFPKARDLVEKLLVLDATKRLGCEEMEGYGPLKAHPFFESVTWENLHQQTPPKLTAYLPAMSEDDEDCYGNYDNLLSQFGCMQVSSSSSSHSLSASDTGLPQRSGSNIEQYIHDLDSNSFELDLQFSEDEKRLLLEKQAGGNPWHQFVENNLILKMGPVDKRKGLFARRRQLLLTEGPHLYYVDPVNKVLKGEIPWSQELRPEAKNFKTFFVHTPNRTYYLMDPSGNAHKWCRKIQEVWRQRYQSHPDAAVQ

[8] = target: Serine/threonine-protein kinase PLK2 (Homo sapiens) (UniProt Q9NYY3); experiment: Inhibition of PLK2 (unknown origin) assessed as residual activity at 1000 nM by KINOMEscan analysis relative to control
[9] = system: MOLM-13; experiment: Antiproliferative activity against human MOLM-13 cells assessed as inhibition of cell viability incubated for 72 hrs by Cell Titer Glo assay; type: functional, cell-based; details: MOLM-13, 72 h

Chain of Epidermal growth factor receptor (P00533 whole entry): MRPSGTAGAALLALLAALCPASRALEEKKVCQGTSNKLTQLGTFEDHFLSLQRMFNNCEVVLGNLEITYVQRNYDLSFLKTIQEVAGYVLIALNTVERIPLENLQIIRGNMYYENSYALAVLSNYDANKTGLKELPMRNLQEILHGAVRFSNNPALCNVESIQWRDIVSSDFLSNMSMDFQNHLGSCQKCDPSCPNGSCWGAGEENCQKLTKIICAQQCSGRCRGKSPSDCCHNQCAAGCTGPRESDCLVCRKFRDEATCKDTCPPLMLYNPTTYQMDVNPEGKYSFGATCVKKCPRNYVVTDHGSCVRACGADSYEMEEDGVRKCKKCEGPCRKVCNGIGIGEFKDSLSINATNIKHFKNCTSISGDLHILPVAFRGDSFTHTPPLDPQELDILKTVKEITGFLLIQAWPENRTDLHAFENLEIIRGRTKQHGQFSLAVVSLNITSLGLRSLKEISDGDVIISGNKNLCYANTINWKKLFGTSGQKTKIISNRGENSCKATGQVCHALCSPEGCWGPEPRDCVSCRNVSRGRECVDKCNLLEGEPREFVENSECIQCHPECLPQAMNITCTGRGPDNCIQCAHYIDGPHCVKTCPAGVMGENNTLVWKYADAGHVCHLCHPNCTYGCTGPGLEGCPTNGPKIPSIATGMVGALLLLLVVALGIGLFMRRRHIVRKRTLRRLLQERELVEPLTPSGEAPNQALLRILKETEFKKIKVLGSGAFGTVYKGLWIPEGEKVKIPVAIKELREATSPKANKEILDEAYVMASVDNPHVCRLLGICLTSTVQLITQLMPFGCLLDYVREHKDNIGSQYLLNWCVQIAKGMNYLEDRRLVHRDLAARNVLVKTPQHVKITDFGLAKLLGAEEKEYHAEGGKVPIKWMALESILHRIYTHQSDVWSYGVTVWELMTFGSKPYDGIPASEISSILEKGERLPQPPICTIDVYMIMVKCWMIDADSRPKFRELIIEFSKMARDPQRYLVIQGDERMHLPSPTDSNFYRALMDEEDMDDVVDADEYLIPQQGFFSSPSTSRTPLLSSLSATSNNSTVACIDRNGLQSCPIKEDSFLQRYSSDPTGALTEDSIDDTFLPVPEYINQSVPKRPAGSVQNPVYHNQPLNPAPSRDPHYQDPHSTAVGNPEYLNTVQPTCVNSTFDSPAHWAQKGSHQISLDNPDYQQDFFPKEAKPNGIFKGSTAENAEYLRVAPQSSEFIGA
Chain of Son of sevenless homolog 2 (Q07890 whole entry, looked up, stated change not applied, the tested form may be a part): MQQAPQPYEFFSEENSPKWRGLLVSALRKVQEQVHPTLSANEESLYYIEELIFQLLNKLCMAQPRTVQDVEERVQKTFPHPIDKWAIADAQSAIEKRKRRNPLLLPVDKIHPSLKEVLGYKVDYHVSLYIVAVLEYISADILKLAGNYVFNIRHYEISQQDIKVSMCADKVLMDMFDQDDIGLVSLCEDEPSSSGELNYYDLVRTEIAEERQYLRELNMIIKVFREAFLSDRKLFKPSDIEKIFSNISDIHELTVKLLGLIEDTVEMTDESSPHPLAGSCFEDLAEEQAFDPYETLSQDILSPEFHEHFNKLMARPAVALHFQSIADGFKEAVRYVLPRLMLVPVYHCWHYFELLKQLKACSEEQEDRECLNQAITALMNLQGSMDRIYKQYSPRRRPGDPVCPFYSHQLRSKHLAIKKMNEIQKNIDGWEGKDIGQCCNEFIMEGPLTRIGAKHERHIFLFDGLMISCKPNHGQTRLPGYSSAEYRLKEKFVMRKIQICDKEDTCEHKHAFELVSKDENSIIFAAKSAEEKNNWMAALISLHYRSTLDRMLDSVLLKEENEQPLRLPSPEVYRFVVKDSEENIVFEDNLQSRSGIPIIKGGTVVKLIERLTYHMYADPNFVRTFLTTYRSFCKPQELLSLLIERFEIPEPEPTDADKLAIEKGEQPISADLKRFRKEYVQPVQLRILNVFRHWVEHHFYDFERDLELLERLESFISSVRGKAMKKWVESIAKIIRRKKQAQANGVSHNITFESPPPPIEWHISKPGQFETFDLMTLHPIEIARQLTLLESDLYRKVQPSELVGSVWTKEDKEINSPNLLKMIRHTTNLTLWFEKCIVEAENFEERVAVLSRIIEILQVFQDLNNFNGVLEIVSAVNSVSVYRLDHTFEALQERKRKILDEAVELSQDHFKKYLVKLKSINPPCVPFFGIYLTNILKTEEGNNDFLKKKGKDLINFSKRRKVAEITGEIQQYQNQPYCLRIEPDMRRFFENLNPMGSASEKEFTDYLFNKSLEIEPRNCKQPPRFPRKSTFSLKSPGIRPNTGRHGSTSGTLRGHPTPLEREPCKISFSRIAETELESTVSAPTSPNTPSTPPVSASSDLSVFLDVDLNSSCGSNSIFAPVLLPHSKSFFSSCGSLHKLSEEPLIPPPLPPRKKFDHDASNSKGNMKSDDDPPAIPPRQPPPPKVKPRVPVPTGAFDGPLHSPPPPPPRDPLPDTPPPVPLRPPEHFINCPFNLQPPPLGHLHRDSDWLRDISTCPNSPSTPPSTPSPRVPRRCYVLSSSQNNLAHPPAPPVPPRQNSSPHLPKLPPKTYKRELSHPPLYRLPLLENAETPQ
Chain of Serine/threonine-protein kinase PLK2 (Homo sapiens) (Q9NYY3 whole entry, looked up): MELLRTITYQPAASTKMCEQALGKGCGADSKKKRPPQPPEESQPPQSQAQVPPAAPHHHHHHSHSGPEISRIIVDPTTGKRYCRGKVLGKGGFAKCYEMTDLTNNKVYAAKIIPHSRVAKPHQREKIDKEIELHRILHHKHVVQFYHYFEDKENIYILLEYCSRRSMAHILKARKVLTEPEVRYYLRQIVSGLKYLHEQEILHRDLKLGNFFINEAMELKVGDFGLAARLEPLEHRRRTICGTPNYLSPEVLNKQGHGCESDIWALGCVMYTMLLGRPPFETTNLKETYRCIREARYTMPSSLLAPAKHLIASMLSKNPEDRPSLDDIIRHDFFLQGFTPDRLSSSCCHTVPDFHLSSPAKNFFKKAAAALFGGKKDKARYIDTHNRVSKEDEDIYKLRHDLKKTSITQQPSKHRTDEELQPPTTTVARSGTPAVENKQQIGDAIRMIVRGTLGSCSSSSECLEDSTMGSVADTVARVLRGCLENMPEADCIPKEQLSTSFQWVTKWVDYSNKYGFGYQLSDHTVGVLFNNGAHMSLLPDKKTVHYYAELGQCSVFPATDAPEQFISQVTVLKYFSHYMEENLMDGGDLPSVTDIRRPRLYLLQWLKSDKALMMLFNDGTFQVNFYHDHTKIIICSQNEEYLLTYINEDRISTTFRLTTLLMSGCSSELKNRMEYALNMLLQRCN
Chain of Mast/stem cell growth factor receptor Kit (Homo sapiens), P10721 [V559D,T670I] (P10721 whole entry V559D/T670I): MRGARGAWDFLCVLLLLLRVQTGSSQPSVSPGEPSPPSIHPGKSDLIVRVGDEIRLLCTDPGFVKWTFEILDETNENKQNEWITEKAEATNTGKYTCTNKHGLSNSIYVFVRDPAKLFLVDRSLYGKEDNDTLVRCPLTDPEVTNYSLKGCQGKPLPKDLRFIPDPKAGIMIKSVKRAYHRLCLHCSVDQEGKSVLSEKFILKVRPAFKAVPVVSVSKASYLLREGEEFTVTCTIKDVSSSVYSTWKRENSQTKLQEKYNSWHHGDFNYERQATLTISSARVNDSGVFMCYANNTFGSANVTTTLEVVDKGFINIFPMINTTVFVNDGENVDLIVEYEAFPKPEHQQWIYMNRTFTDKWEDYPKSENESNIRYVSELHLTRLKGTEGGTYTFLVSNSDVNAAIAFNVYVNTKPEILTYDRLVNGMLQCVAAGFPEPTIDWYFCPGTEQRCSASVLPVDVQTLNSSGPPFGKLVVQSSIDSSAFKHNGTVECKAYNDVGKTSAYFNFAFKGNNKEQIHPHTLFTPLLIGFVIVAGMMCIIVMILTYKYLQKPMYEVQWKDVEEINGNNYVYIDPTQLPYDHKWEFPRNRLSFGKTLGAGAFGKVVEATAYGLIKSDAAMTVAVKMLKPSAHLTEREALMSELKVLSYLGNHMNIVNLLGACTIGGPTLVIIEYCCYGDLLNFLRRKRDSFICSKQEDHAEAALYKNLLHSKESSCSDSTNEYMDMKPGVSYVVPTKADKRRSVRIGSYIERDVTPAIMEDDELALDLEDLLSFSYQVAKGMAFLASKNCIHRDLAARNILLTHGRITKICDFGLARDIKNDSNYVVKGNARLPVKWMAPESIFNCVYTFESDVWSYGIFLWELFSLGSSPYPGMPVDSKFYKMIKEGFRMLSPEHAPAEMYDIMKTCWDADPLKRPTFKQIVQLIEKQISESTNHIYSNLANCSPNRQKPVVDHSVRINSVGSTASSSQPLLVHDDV

Compound | IC50 [1] | IC50 [2] | IC50 [3] | Activity [4] | Activity [5] | Activity [6] | Activity [7] | Activity [8] | IC50 [9]
COc1cc2nc(C)nc(N[C@H](C)c3cccc(-c4cn[nH]c4)c3)c2cc1OC | > 20 µM | > 20 µM | > 20 µM | 94% | 55% | 92% | 97% | 99% | 3.54 µM
CNCc1ccccc1-c1csc([C@@H](C)Nc2nc(C)nc3cc(OC)c(OC)cc23)c1 [BAY-293] | > 20 µM | > 20 µM | > 20 µM |  |  |  |  |  | 0.995 µM
COc1cc2ncnc(N[C@H](C)c3cccc4ccccc34)c2cc1OC | > 20 µM | > 20 µM | 0.58 µM | 100% | 94% | 73% | 88% | 99% | 2.53 µM
